Read-outs that look alike come from different tables or passages of the source.
Legend:
Assay type in all cases: cell-based
NCI-N87 = test: In vitro proliferation inhibition assay of camptothecin derivatives (Payload), Test Example 1; conditions: Homo sapiens, NCI-N87, 96 h, read-out: NCI-N87 IC50
Excerpt: (§1) The control compounds used in the experiment were DXD (synthesized from EXD according to the synthesis method of patent EP2907824B1. EXD was purchased from MedChemExpress, catalog number: HY-13631A) and SN38 (purchased from Bide Pharmatech, catalog number BD8481). Their structural formulas are [drawing 515] respectively.
(§2) The cell lines used in this experiment were human breast cancer cells SK-BR-3, T47D, MDA-MB-453, human malignant melanoma cells A375, human lung squamous carcinoma cells NCI-H1703, and human gastric cancer cells NCI-N87. Cell suspensions were prepared in fresh cell culture medium containing 10% FBS and then diluted to a density of 5 × 10^4 cells/mL, 10×10^4 cells/mL, 100 µL per well was added to a 96-well cell culture plate (Thermo catalog number: 167425), and cultured at 37°C with 5% carbon dioxide for 24 h.
(§3) The test compounds of the present invention and the control compounds were each prepared to 10 mM stock solutions in DMSO, and the drugs were diluted with 5% FBS 1640 culture medium in a gradient of 50, 10, 2, 0.4, 0.08, 0.016, 0.0032, 0.00064, 0.000128, and 0 µM, with two replicates for each well.
(§4) 50 µL of cell supernatant was pipetted from each 96-well plate, followed by the addition of 50 µL of compound dilutions at final […] of 25, 5, 1, 0.2, 0.04, 0.008, 0.0016, 0.00032, 0.000064, and 0 µM. After mixing, the cells were cultured in a constant temperature CO2 incubator for 4 days. Cell supernatant was then added with 100 µL of detection reagent (5% FBS1640 medium and CCK-8 solution in a 10:1 ratio) and incubated in an incubator for 4 hours. […] was read on a microplate reader (TECAN, Spark), and data were analyzed using Graphpad Prism 8 software.

SK-BR-3 = test: as above; conditions: Homo sapiens, SK-BR-3, 96 h, read-out: SK-BR-3 IC50
Excerpt: as §1, §2, §3, §4

T47D [1] = test: cells; conditions: Homo sapiens, 96 h
Excerpt: as §1, §2, §3, §4

A375 = test: In vitro proliferation inhibition assay of camptothecin derivatives (Payload), Test Example 1; conditions: Homo sapiens, A-375, 96 h, read-out: A375 IC50
Excerpt: as §1, §2, §3, §4

MDA-MB-453 [2] = test: as above; conditions: Homo sapiens, MDA-MB-453, 96 h, read-out: MDA-MB-453 IC50
Excerpt: as §1, §2, §3, §4

NCI-H1703 = test: as above; conditions: Homo sapiens, NCI-H1703, 96 h, read-out: NCI-H1703 IC50
Excerpt: as §1, §2, §3, §4

T47D [3] = test: cells; conditions: Homo sapiens, 120 h, read-out: T47D IC50
Procedure: (§5) Test Example 2 In vitro proliferation inhibition assay of the camptothecin derivatives (Payload) of the present invention on tumor cells 1. Instruments and Reagents
(§6) 2. Experimental Procedure • a. Plating & culture: MDA-MB-453 (purchased from: Xiehe, catalog number: 1101HUM-PUMCO00016)/T47D (Kebai, CBP60397)/HT1376 cells (purchased from: Kebai, catalog number: CBP60310) were cultured into 96-well plates by a density of 1×10^3 /2×10^3 /1×10^3 cells per100 µL, and 200 µL of PBS was added to the outermost circle (to reduce the volatilization of the culture medium), and cultured at 37°C, 5% CO2 incubator for 24 h; • b. Drug Addition & Incubation: The 96-well flat-bottom plate was retrieved. The culture medium in the wells was aspirated, and 100 µL of the ADC drug/payload (diluted in culture medium) was added to each well. The plate was then incubated at 37°C, 5% CO2 incubator for 5 days. 3. Detection and data processing • a. The 96-well plate was retrieved. The culture medium was removed, and 100 µL of detection reagent (CCK8:medium= 1:9) was added to each well. The plate was then placed in a 37°C, 5% CO2 incubator for 4 hours; • b. The optical density (OD) at 450 nm was measured using a microplate reader (model: CEY0017), and the data was recorded with Excel. • c. Graphpad Prism 9.0 was used to analyze and organize the data.

HT1376 = test: In vitro proliferation inhibition assay of camptothecin derivatives (Payload), Test Example 2; conditions: Homo sapiens, HT-1376, 120 h, read-out: HT1376 IC50
Procedure: as §5, §6

MDA-MB-453 [4] = test: as above; conditions: Homo sapiens, MDA-MB-453, 120 h, read-out: MDA-MB-453 IC50
Procedure: as §5, §6

[5] = payload, cultured 4 days, CCK-8
[6] = payload, cultured 4 days, CCK-8, read-out: T47D IC50
[7] = payload, cultured 4 days, CCK-8, ~ indicates estimated IC50 value

Row | Structure (SMILES) | IC50 (NCI-N87; [5]) [nM] | IC50 (SK-BR-3; [5]) [nM] | IC50 (NCI-N87) [nM] | IC50 (SK-BR-3) [nM] | IC50 (MDA-MB-453 [2]; [5]) [nM] | IC50 (T47D [1]; read-out: T47D IC50) [nM] | further results
1 | CC[C@@]1(OC(=O)CCN2CCN(C)CC2)C(=O)OCc2c1cc1n(c2=O)Cc2c-1nc1cc(F)c(C)c3c1c2[C@@H](N)CC3 [Compound 2] | 3.75 | 1.56 | – | – | – | – | –
2 | CCC1(OC(=O)Cc2ccc(OC3OC(CO)C(O)C(O)C3O)cc2)C(=O)OCc2c1cc1n(c2=O)Cc2c-1nc1cc(F)c(C)c3c1c2C(N)CC3 (stereo not drawn) [Compound 3] | – | – | 1.91 | 1.04 | – | – | –
3 | CC[C@@]1(OC(=O)CCN2C(=O)c3ccccc3C2=O)C(=O)OCc2c1cc1n(c2=O)Cc2c-1nc1cc(F)c(C)c3c1c2[C@@H](N)CC3 [Compound 4] | 381 | 183 | – | – | – | – | –
4 | CC[C@@]1(OC(=O)Cn2cc(F)c(=O)[nH]c2=O)C(=O)OCc2c1cc1n(c2=O)Cc2c-1nc1cc(F)c(C)c3c1c2[C@@H](N)CC3 [Compound 6] | 2.23 | 1.23 | – | – | 4.24 | – | IC50 (T47D [1]; [6]): 0.742 nM; IC50 (A375; [7]): 0.164 nM; IC50 (NCI-H1703; [5]): 0.59 nM
5 | CC[C@@]1(OC(=O)CCOCCOCCOCCOC)C(=O)OCc2c1cc1n(c2=O)Cc2c-1nc1cc(F)c(C)c3c1c2[C@@H](N)CC3 [Compound 7] | – | – | – | – | 570 | – | IC50 (T47D [1]; [6]): 245 nM; IC50 (A375; [7]): 0.714 nM; IC50 (NCI-H1703; [5]): 0.064 nM
6 | CC[C@@]1(OC(=O)COc2ccc(Cl)cc2C)C(=O)OCc2c1cc1n(c2=O)Cc2c-1nc1cc(F)c(C)c3c1c2[C@@H](N)CC3 [Compound 9] | – | – | – | – | 3.86 | – | IC50 (T47D [1]; [6]): 0.804 nM; IC50 (NCI-H1703; [5]): 0.149 nM
7 | CC[C@@]1(O)C(=O)OCc2c1cc1n(c2=S)Cc2c-1nc1cc(F)c(C)cc1c2CN [Compound 11] | – | – | 1.56 | 0.906 | – | – | IC50 (T47D [3]): 0.141 nM; IC50 (HT1376): 3.85 nM; IC50 (MDA-MB-453 [4]): 0.645 nM
8 | CC[C@@]1(O)C(=O)OCc2c1cc1n(c2=S)Cc2c-1nc1cc(F)c(C)cc1c2CNC(=O)CO [Compound 17] | – | – | 0.999 | 0.675 | – | 0.172 | IC50 (MDA-MB-453 [2]): 1.14 nM
9 | CC[C@@]1(O)C(=O)OCc2c1cc1n(c2=O)Cc2c-1nc1cc(F)c(C)c3c1c2[C@@H](NC(=O)CO)CC3 [DXD, Dxd, reference compound] | – | – | 5.97 | 3.62 | – | 1.02 | IC50 (A375): 0.131 nM; IC50 (MDA-MB-453 [2]): 2.87 nM; IC50 (NCI-H1703): 0.472 nM
10 | CC[C@@]1(O)C(=O)OCc2c1cc1n(c2=O)Cc2c-1nc1cc(F)c(C)c3c1c2[C@@H](N)CC3 [EXD, Exatecan, reference compound] | – | – | 1.45 | 0.866 | – | 0.729 | IC50 (MDA-MB-453 [2]): 1.02 nM; IC50 (NCI-H1703): 0.00789 nM; IC50 (T47D [3]): 0.221 nM; IC50 (HT1376): 8.71 nM; IC50 (MDA-MB-453 [4]): 0.902 nM
11 | CC[C@@]1(O)C(=O)OCc2c1cc1n(c2=S)Cc2cc3cc(N)c(F)cc3nc2-1 [Example 46] | – | – | 0.229 | 0.0155 | – | – | –
12 | CCc1c2c(nc3ccc(O)cc13)-c1cc3c(c(=O)n1C2)COC(=O)[C@]3(O)CC [SN38, SN-38, reference compound] | 5.38 | 2.51 | – | – | 32.8 | 2.11 | –
